Results as given in patent US20090134028A1, “Method of Estimating Effect of Test Chemical on Living Organisms” (Chemicals Evaluation and Research Institute, priority 2005, published 2009).
Read-outs that look alike come from different tables or passages of the source.

Columns and labels:
[1] = Prediction of liver cell hypertrophy using SVM from post-translational modification data; set-up: species or system rat
[2] = cited from earlier work
[3] = SVM prediction of liver cell hypertrophy, training set, top-ranked 20 sets of post-translational modification data
[4] = known carcinogenicity of chemical, Tables 1 to 3
[5] = known carcinogenicity of chemical, Tables 8 to 11

CC(C)[C@@H]1CC[C@@H](C)C[C@H]1O (racemic) [DL-menthol]
Prediction result [1]: +1 CORRECT
Carcinogenicity ([2]; in vivo): −
Finding of hepatocyte hypertrpy (liver cell; rat, in vivo): +
pathology of liver cell hypertrophy in the liver (liver cell; rat, in vivo): pathology of liver cell hypertrophy was seen

Clc1ccc(Cl)cc1 [1,4-Dichlorobenzene]
Prediction result [1]: +1 CORRECT
Carcinogenicity ([2]; in vivo): +
Finding of hepatocyte hypertrpy (liver cell; rat, in vivo): +
pathology of liver cell hypertrophy in the liver (liver cell; rat, in vivo): pathology of liver cell hypertrophy was seen

C1COCCO1 [1,4-Dioxane]
Prediction result [1]: −1 CORRECT
Finding of hepatocyte hypertrpy (liver cell; rat, in vivo): −
pathology of liver cell hypertrophy in the liver (liver cell; rat, in vivo): no pathology of liver cell hypertrophy was seen

Cc1ccc(N)cc1N [2,4-Diaminotoluene]
Prediction result [1]: −1 CORRECT
Carcinogenicity ([2]; in vivo): +
Finding of hepatocyte hypertrpy (liver cell; rat, in vivo): −
pathology of liver cell hypertrophy in the liver (liver cell; rat, in vivo): no pathology of liver cell hypertrophy was seen

Cc1c(N)cccc1N [2,6-Diaminotoluene]
Prediction result [1, 3]: −1 CORRECT
Finding of hepatocyte hypertrpy (liver cell; rat, in vivo): −
pathology of liver cell hypertrophy in the liver (liver cell; rat, in vivo): no pathology of liver cell hypertrophy was seen

Cl.ClCc1ccccn1 [2-(Chloromethyl)pyridine hydrochloride]
Prediction result [1]: −1 CORRECT
Carcinogenicity [2, 4]: −
Carcinogenicity [2, 5]: −
Finding of hepatocyte hypertrpy (liver cell; rat, in vivo): −
pathology of liver cell hypertrophy in the liver (liver cell; rat, in vivo): no pathology of liver cell hypertrophy was seen

CC(C)[N+](=O)[O-] [2-Nitropropane]
Prediction result [1]: −1 CORRECT
Finding of hepatocyte hypertrpy (liver cell; rat, in vivo): −
pathology of liver cell hypertrophy in the liver (liver cell; rat, in vivo): no pathology of liver cell hypertrophy was seen

Nc1ccc([N+](=O)[O-])cc1N [4-Nitro-o-phenylenediamine]
Prediction result [1]: −1 CORRECT
Carcinogenicity ([2]; in vivo): −
Finding of hepatocyte hypertrpy (liver cell; rat, in vivo): −
pathology of liver cell hypertrophy in the liver (liver cell; rat, in vivo): no pathology of liver cell hypertrophy was seen

CCOC(=O)C(C)(C)Oc1ccc(Cl)cc1 [Clofibrate]
Carcinogenicity [2, 4]: +
Carcinogenicity [2, 5]: +
Finding of hepatocyte hypertrpy (liver cell; rat, in vivo): +
pathology of liver cell hypertrophy in the liver (liver cell; rat, in vivo): pathology of liver cell hypertrophy was seen

CCCCC(CC)COC(=O)CCCCC(=O)OCC(CC)CCCC (stereo not drawn) [Di(2-ethylhexyl)adipate]
Prediction result [1]: 1
Finding of hepatocyte hypertrpy (liver cell; rat, in vivo): −
pathology of liver cell hypertrophy in the liver (liver cell; rat, in vivo): no pathology of liver cell hypertrophy was seen

C#C[C@]1(O)CC[C@H]2[C@@H]3CCc4cc(O)ccc4[C@H]3CC[C@@]21C [Ethinylestradiol]
Carcinogenicity [2, 4]: +
Carcinogenicity [2, 5]: +
Finding of hepatocyte hypertrpy (liver cell; rat, in vivo): −
pathology of liver cell hypertrophy in the liver (liver cell; rat, in vivo): no pathology of liver cell hypertrophy was seen

O=C1O[C@H]([C@@H](O)CO)C(O)=C1O [L-ascorbic acid]
Prediction result [1, 3]: −1 CORRECT
Finding of hepatocyte hypertrpy (liver cell; rat, in vivo): −

COC(N)=O [Methyl carbamate]
Prediction result [1, 3]: −1 CORRECT
pathology of liver cell hypertrophy in the liver (liver cell; after 28 days repeated administration): no pathology of liver cell hypertrophy was seen
Finding of hepatocyte hypertrpy (liver cell; rat liver after 28 days repeated administration): −

CCC1(c2ccccc2)C(=O)NC(=O)NC1=O [Phenobarbital]
Finding of hepatocyte hypertrpy (liver cell; rat, in vivo): +
pathology of liver cell hypertrophy in the liver (liver cell; rat, in vivo): pathology of liver cell hypertrophy was seen
